The source of these data is US11344542B2, “Treatment of aging-associated disease with modulators of leukotriene A4 hydrolase” (Alkahest, Inc., priority 2018, dated 2022).

Assay [1] concerns nineteen-month-old wild type (C57BL/6) mice. The assay is described as follows: Y-maze in aged mice treated with inhibitors. Format: in vivo, mouse. Particulars: PO daily for 4 weeks, SC 5 mg/kg, CP 10 mg/kg. How it is done: A large Y-maze test assessed short-term memory of the familiarity of a specific context. Mice were brought to the experimental room for at least 30 min of acclimation to the experimental room conditions (dim lighting) prior to testing. For the initial training trial, the mouse was placed at the end of one arm of a large Y-maze designated “start arm” (arm length: 15 inches). The third arm of the maze was blocked off, allowing the mouse to explore two of the three arms freely (“start arm” and “familiar arm”) for 5 min. Each arm contained spatial cues. Three hours later, the mouse was placed back into the maze in the “start arm,” and allowed to explore all three arms with the third arm unblocked (“novel arm”). Movements in and out of each arm were tracked using automated tracking software (CleverSys or San Diego Instruments). Testing was performed under dim lighting, and the apparatus was cleaned with 70% ethanol between trials. The time spent and number of entireties into the “novel arm” and “familiar arm” were analyzed, as well as total distance travelled and velocity as measures of general locomotor activity.
Recombinant human LTA4H (Bio-techne, 4008-SN) was buffer-exchanged into sterile PBS and dosed at 4.6 ug/150 uL by tail vein i.v. injection. SC-57461A (Cayman Chemical, 423169-68) stock solution was prepared at 10 mg/mL in DMSO. […]

For assay [2] the test system is unchanged. The assay is described as follows: Radial arm water maze in aged mice treated with inhibitors. It is filed as in vivo, mouse. Here is the method:
The water maze (see, e.g. Alamed J, et al., Two-day radial-arm water maze learning and memory tasks; robust resolution of amyloid-related memory deficits in transgenic mice., Nat. Protoc., 1(4):1671-79 (2006)), was filled with water at least 24 hours prior to the test to equilibrate to 25° C. The water was dyed with white latex paint to make the animals visible for tracking and to allow for the use of a hidden platform. Eight distinct visual cues were placed at the end of each of eight arms of the RAWM inserts. On day 1 animals were subjected to 5 trials each with a visible platform and a 30-minute inter-trial interval. Animals had 60 seconds to reach the platform. […] The goal arm remained constant and a different start arm was randomly assigned for each of the 5 trials so that mouse started in every arm once except for the two arms directly across from the platform. The goal arm was switched after every two mice and balanced between all treatment groups. After each trial the mice were placed in an empty cage with blue pads and allowed to dry off under a heat lamp before being placed back into their home cage. Testing day was 48 hours after training, when animals were subjected to the same test of 5 trials each and a 30-minute inter-trial interval, but with a hidden platform Animals were scored for the number of errors (entry into a non-goal arm) and for latency to reach the platform. All trials were recorded using TopScan software (CleverSys, Inc., Reston, Va.).
Recombinant human LTA4H (Bio-techne, 4008-SN) was buffer-exchanged into sterile PBS and dosed at 4.6 ug/150 uL by tail vein i.v. injection. SC-57461A (Cayman Chemical, 423169-68) stock solution was prepared at 10 mg/mL in DMSO. Stock solution was diluted into sterile PBS immediately prior to p.o. dosing to a final concentration of 10% DMSO and 1 mg/mL SC-57461A. Mice were p.o. dosed at 5 mg/kg. CP-105,696 (Sigma, PZ0363), Pinostilbene hydrate (Sigma, SML0098), and Montelukast (Cayman Chemical, 10008318) stock solutions were prepared at 30 mg/mL in EtOH/Solutol. […]

The next assay relates to LTB4. The experiment in a line: Plasma LTB4 by ELISA in aged mice treated with inhibitors. It is filed as in vivo, mouse. The conditions noted are these: terminal plasma, PO daily for 4 weeks, vs vehicle. Here is the method:
On the final day of dosing, mice were deeply anesthetized with Avertin (250 mg/kg IP). The mice are subjected to cardiac puncture and blood samples were collected using syringes pre-filled with EDTA or heparin. Blood was either subjected to calcimycin stimulation assay or separated into plasma by centrifugation. Plasma from each mouse was aliquoted and stored at −80° C.
The concentration of mouse LTB4, the product of LTA4H enzyme hydrolysis activity, was measured using commercially-available LTB4 parameter assay kits (R&D Systems and Enzo). Blood samples were collected by cardiac puncture into pre-filled syringes with EDTA and injected into a microcentrifuge tube. The plasma was separated by centrifugation at 1000 g for 15 minutes at 4 C. Alternatively, blood was subjected to a calcimycin stimulation assay to increase the production of LTB4 prior to plasma collection. All plasma was stored at −80 C until measurement of LTB4 levels. LTB4 levels were measured from the plasma from 4-15 individual young (3 month, 3M) or aged (22.5 month, 22.5M) wild-type mice (WT; C57BL/6).
Nineteen-month-old (19 mo) wild type (WT; C57BL/6) mice were homogenized into five (5) groups by body weight, total distance travelled in the open field test, and average velocity in the open field test. […]

A further assay concerns hippocampal mRNA levels. The experiment in a line: qPCR of hippocampal mRNA levels in aged mice treated with inhibitors. It is filed as in vivo, mouse. The conditions noted are these: PO daily for 4 weeks, vs vehicle. How it is done:
(§1) Brains were collected following saline perfusion and separated by mid-sagittal slice with one-half drop fixed in freshly prepared 4% PFA. PFA was changed to 30% sucrose 24-48 hours later. A second change to 30% sucrose occurred 24 hours later. The second half was dissected into hippocampus and cortex and then snap frozen on dry ice.
(§2) Brain tissue was sectioned or lysed and analyzed for markers of neurogenesis and aging by standard histological and biochemical methods, including qRT-PCR, Western blot, ELISA, and immunohistochemistry.
(§3) Nineteen-month-old (19 mo) wild type (WT; C57BL/6) mice were homogenized into five (5) groups by body weight, total distance travelled in the open field test, and average velocity in the open field test. Group 1 was administered 10% EtOH control PO daily for 4 weeks, Group 2 was administered 5 mg/kg of SC-57461A LTA4H dual inhibitor PO daily for 4 weeks; Group 3 was administered 10 mg/kg of CP-105,696 LTB4 receptor (BLTR) antagonist PO daily for 4 weeks, Group 4 was administered 10 mg/kg of Montelukast cysteinyl receptor (CysLTR) antagonist daily for 4 weeks, and Group 5 was administered 10 mg/kg of pinostilbene hydrate daily for 4 weeks. During Week 4 of treatment all groups were tested using open field, radial arm water maze, and Y-maze. During Week 5 animals were sacrificed, and tissues collected for histological and biochemical analysis.
For orientation: Quantitative PCR measures a nucleic acid by following its amplification.

Assay [3] concerns aquaporin 4 (AQP4) in the hippocampus. The experiment in a line: Aquaporin 4 (AQP4) immunofluorescence in the hippocampus of aged mice. Format: in vivo, mouse. The conditions noted are these: 10 mg/kg PO daily for 4 weeks. Here is the method:
as §1, §2, §3

A further assay has as its target T1, LTA4H (Homo sapiens, UniProt P09960).
T1 sequence (P09960 1-611): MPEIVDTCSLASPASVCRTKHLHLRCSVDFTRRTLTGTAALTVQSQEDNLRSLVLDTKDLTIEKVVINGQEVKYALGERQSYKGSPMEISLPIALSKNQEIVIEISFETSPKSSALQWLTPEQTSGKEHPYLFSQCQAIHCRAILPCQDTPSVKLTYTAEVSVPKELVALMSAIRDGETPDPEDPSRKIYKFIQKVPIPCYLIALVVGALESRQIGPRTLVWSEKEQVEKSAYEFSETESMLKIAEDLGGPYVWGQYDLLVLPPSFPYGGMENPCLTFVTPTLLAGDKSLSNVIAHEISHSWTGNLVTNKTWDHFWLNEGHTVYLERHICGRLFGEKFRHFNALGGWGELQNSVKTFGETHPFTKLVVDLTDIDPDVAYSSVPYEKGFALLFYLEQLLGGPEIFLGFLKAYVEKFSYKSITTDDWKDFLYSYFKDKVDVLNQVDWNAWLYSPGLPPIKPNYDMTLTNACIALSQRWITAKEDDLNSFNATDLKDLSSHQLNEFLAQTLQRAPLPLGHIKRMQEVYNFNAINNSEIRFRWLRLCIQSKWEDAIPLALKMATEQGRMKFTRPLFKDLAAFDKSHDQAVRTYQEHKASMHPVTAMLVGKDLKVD
The conditions noted are these: in vitro; Low et al., Sci Rep 2017; cited from earlier work.

The mark [4] stands for this setting: hidden platform testing phase, compared to vehicle mice.

Entries after “also recorded” stand apart in the source; their conditions may differ.

Consider `O=C(O)C1(c2ccc3c(c2)OC[C@H](Cc2ccc(-c4ccccc4)cc2)[C@H]3O)CCCC1` [CP-105,696], for which the “preference for the novel versus familiar arm in Y-maze (percentage of entries)” value in assay [1] is “statistically significant preference for the novel arm”.
On to `CN(CCCOc1ccc(Cc2ccccc2)cc1)CCC(=O)O.Cl` [SC-57461A], for which the “hippocampus-dependent spatial memory in radial arm water maze” value in assay [2] (aged mice, PO daily for 4 weeks, SC 5 mg/kg, Montelukast 10 mg/kg) is “improvement”. Moreover, in assay [2] (setting [4]), the “latency to find the platform in radial arm water maze” value was “significantly shorter latency” and the “number of errors in radial arm water maze” value is listed as “fewer errors”. For the same compound, in assay [1], the “preference for the novel versus familiar arm in Y-maze (percentage of entries)” value is on record as “trend towards preference for the novel arm”. The “plasma concentration of LTB4 measured by ELISA” value in the assay on LTB4 was “reduces”. In the assay with hippocampal mRNA levels, the “IL-1β hippocampal mRNA expression (qPCR)” value is “significant decrease”, the “IL-6 hippocampal mRNA expression (qPCR)” value was “significant decrease”, the “TNFα hippocampal mRNA expression (qPCR)” value is “significant decrease” and the “aqp4 hippocampal mRNA expression (qPCR)” value was “significant decrease”. Also, in the assay on hippocampal mRNA levels, the “h2d1 hippocampal mRNA expression (qPCR)” value was “significant decrease” and the “timp1 hippocampal mRNA expression (qPCR)” value is reported as “trend towards a decrease”.
As to `COc1cc(O)cc(/C=C/c2ccc(O)cc2)c1` [pinostilbene hydrate], the “fluorescence intensity of AQP4 in the hippocampus immediately surrounding blood vessels (vascular)” value in assay [3] is “trend towards a decrease”. For the same compound, the “integrated optical density of aquaporin 4 (AQP4) in the hippocampus” value in assay [3] (vs vehicle, hydrate, 10 mg/kg) was “trend towards a decrease; also recorded: significant reduction”. Also, the “plasma concentration of LTB4 measured by ELISA” value in the assay on LTB4 is listed as “did not detect a reduction”. Besides, in the assay on hippocampal mRNA levels, the “TNFα hippocampal mRNA expression (qPCR)” value is “significant decrease”. For the same compound, on LTA4H, the “inhibition of hydrolase versus peptidase activity of LTA4H” value was “only inhibit the hydrolase activity and not the peptidase activity”.
